Test results taken from patent US20040214789A1, “Therapeutics” (priority 2001, published 2004).
“Also recorded” adds a separate entry of the source.

Tests used:
[1] = system: P10 ADP-ribosyl cyclase from Jurkat T lymphocytes; test: Inhibition of P10 (heavy membrane) ADP-ribosyl cyclase, cyclase activity; format: biochemical, human; conditions: for Inhibition of intracellular membrane bound P10 ADP-ribosyl cyclase (in words): heavy (P10) membranes from Jurkat T cells, FIG. 3; for Enzyme Activity (% of control), Cyclase activity: P10 fraction, 100 μM 1,N6-etheno-NAD substrate
Experimental: (§1) Heavy membrane (P10 membranes) were prepared from Jurkat T cells (10^9 cells) as described (Guse et al., Nature 1999). P10-ADP-ribosyl cyclase was then incubated with 100 μM substrate (1,N^6-etheno-NAD) in the presence or absence of various concentrations of 8-Br-NHD. The formation of 1,N^6-etheno-cADPR and 1,N^6-etheno-ADPR was continuously monitored by fluorimetry (exc. 300 nm, em. 410 nm). Finally, the precise amount of products 1,N^6-etheno-cADPR and 1,N^6-etheno-ADPR was quantified by HPLC (da Silva et al., 1998a) using a fluorescence detector. Data are presented as mean±SD (n≧3).

[2] = system: NAD glycohydrolase activity of soluble protein fraction from Jurkat T lymphocytes; test: Inhibition of NAD glycohydrolase (NADase) activity in the soluble fraction; format: biochemical, human
Experimental: as §1, with “FIG. 1-a, b—Inhibition of intracellular, soluble ADP-ribosyl cyclase by 8-Br-NHD. Soluble protein (S100 protein) was” for “Heavy membrane (P10 membranes) were”, “1999) and soluble ADP-ribosyl cyclase was partially purified by hydroxyapatite chromatography. Partially purified ADP-ribosyl” for “1999). P10-ADP-ribosyl”, “mean ±SD” for “mean±SD”
(§2) Soluble protein (S100 protein) was prepared from Jurkat T cells (10^9 cells) as described (Guse et al., Nature 1999) and soluble ADP-ribosyl cyclase was partially purified by hydroxyapatite chromatography. […] The formation of 1,N^6-etheno-cADPR and 1,N^6-etheno-ADPR was continuously monitored by fluorimetry (exc. 300 nm, em. 410 nm). Finally, the precise amount of products 1,N^6-etheno-cADPR and 1,N^6-etheno-ADPR was quantified by HPLC (da Silva et al., 1998a) using a fluorescence detector. Data are presented as mean±SD (n≧3).

[3] = system: soluble ADP-ribosyl cyclase from Jurkat T lymphocytes; test: Inhibition of partially purified soluble ADP-ribosyl cyclase, cyclase activity; format: biochemical, human; conditions: soluble fraction, 100 μM 1,N6-etheno-NAD substrate
Experimental: FIG. 1-a, b—Inhibition of intracellular, soluble ADP-ribosyl cyclase by 8-Br-NHD. Soluble protein (S100 protein) was prepared from Jurkat T cells (10^9 cells) as described (Guse et al., Nature 1999) and soluble ADP-ribosyl cyclase was partially purified by hydroxyapatite chromatography. Partially purified ADP-ribosyl cyclase was then incubated with 100 μM substrate (1,N^6-etheno-NAD) in the presence or absence of various concentrations of 8-Br-NHD. The formation of 1,N^6-etheno-cADPR and 1,N^6-etheno-ADPR was continuously monitored by fluorimetry (exc. 300 nm, em. 410 nm). Finally, the precise amount of products 1,N^6-etheno-cADPR and 1,N^6-etheno-ADPR was quantified by HPLC (da Silva et al., 1998a) using a fluorescence detector. Data are presented as mean ±SD (n≧3).
as §2

[4] = system: NAD glycohydrolase activity of P10 membranes from Jurkat T lymphocytes; test: Inhibition of NAD glycohydrolase (NADase) activity in the P10 fraction; format: biochemical, human; conditions: for Inhibition of NADase activity in the P10 fraction (in words): FIG. 3; for Enzyme Activity (% of control), NAD glycohydrolase activity: P10 fraction
Experimental: as §1

human Jurkat T cells = test: Proliferation of Jurkat T cells, trypan blue cell counting; format: cell-based; conditions: present for 4 or 5 days; FIG. 6
Experimental: FIG. 6—Inhibition of proliferation of the human Jurkat T cell line by 8-Br-NHD. Proliferation of intact Jurkat T cells was measured as described earlier (Guse et al., Cell Calcium 1997). Various concentrations of 8-Br-NHD were added to the cultures in 96 well plates, and were present for 4 or 5 days. The number of living cells was determined every day by cell counting of trypan blue stained cells. Data are mean±SD from 2 independent experiments.

[5] = target: T1, NADase activity of intact Jurkat T cells expressing ecto-ADP-ribosyl cyclase (Homo sapiens, UniProt P28907); test: Inhibition of NADase activity on intact Jurkat T cells; format: cell-based; conditions: FIG. 4
T1 construct: Intact Jurkat T cells expressing ecto-ADP-ribosyl cyclase; endogenous in cells; host or cells: intact Jurkat T cells
T1 sequence (P28907 1-300): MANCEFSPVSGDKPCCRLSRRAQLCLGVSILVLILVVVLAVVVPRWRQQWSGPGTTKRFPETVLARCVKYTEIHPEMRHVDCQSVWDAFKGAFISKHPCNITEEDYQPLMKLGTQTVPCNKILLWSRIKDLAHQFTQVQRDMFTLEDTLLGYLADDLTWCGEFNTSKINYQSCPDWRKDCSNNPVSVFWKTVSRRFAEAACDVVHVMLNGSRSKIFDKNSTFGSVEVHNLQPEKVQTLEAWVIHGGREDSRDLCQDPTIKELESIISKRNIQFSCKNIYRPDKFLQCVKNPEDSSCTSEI
Experimental: as §1, with “Intact” for “Heavy membrane (P10 membranes) were prepared from”, “expressing ecto-ADP-ribosyl cyclase (da Silva” for “(10^9 cells) as described (Guse”, “1998b) were” for “Nature 1999). P10-ADP-ribosyl cyclase was then”, “8-Br-NHD. It is likely that this enzyme is CD38.” for “8-Br-NHD.”

[6] = system: TCR/CD3-mediated Ca2+-signalling of the human Jurkat T cell line; test: TCR/CD3-mediated Ca2+ signalling, Fura2 ratiometric imaging; format: cell-based; conditions: preincubation 250 or 500 μM for 30 min, anti-CD3 OKT3 stimulation, 25 min after stimulation; FIG. 5
Experimental: Intact Jurkat T cells were loaded with Fura2-AM, and Ca^2+ signalling was measured by digital ratiometric Ca^2+ imaging (Guse et al., Nature 1999). For technical reasons the excitation wavelengths were set to 340 and 365 nm, whereas emission was filtered at 520 nm. The cells were preincubated with 250 or 500 μM 8-Br-NHD for 30 min. Then the cells were stimulated by anti-CD3 antibody OKT3 ([…]) in solution, and the cells were transferred to the examination chamber on the digital imaging station. The intracellular Ca^+ concentration was then monitored for about 25 min with a sampling rate of 3 or 6/min. Data are presented as mean intracellular Ca^2+ concentration ±SEM 25 min after stimulation. Numbers in brackets indicate the number of cells investigated in 3 independent experiments.

[7] = target: T2, ecto-ADP-ribosyl cyclase (CD38) (Homo sapiens, UniProt P28907); test: Inhibition of cell surface ADP-ribosyl cyclase on intact Jurkat T cells; format: cell-based; conditions: FIG. 4
T2 construct: Intact Jurkat T cells expressing ecto-ADP-ribosyl cyclase; endogenous in cells; host or cells: intact Jurkat T cells
T2 sequence (P28907 1-300): T1 sequence (P28907 1-300)
Experimental: as §1, with “Intact” for “Heavy membrane (P10 membranes) were prepared from”, “expressing ecto-ADP-ribosyl cyclase (da Silva” for “(10^9 cells) as described (Guse”, “1998b) were” for “Nature 1999). P10-ADP-ribosyl cyclase was then”, “8-Br-NHD. It is likely that this enzyme is CD38.” for “8-Br-NHD.”

NADase = conditions: positive controls; cited from earlier work

Row | Inhibition of intracellular membrane bound P10 ADP-ribosyl cyclase (in words) [1] | Enzyme Activity (% of control), Cyclase activity ([1]; inhibitor 10 μM) | Enzyme Activity (% of control), Cyclase activity ([1]; inhibitor 100 μM) | Enzyme Activity (% of control), NAD glycohydrolase activity ([2]; inhibitor 10 μM) | Enzyme Activity (% of control), NAD glycohydrolase activity ([2]; inhibitor 100 μM) | Enzyme Activity (% of control), Cyclase activity ([3]; inhibitor 10 μM) | Enzyme Activity (% of control), Cyclase activity ([3]; inhibitor 100 μM) | Inhibition of NADase activity in the P10 fraction (in words) [4] | Enzyme Activity (% of control), NAD glycohydrolase activity ([4]; inhibitor 10 μM) | Enzyme Activity (% of control), NAD glycohydrolase activity ([4]; inhibitor 100 μM) | Enzyme Activity (% of control), Cyclase activity ([1]; inhibitor 1000 μM) | Enzyme Activity (% of control), NAD glycohydrolase activity ([2]; inhibitor 1000 μM) | Enzyme Activity (% of control), Cyclase activity ([3]; inhibitor 1000 μM) | Enzyme Activity (% of control), NAD glycohydrolase activity ([4]; inhibitor 1000 μM) | Compound | Proliferation of Jurkat T cells (in words) (human Jurkat T cells) | Inhibition of NADase activity, cell surface (in words) [5] | Second, sustained phase of Ca2+ signaling (in words) [6] | Inhibition of ecto-ADP-ribosyl cyclase (in words) [7] | Published as inhibitor of NADase (NADase)
1 | – | 94.0 % of control | 43.3 % of control | 95.2 % of control | 29.6 % of control | 99.2 % of control | 38.2 % of control | – | 94.2 % of control | 42.6 % of control | 14.9 % of control | 8.2 % of control | 10.6 % of control | 12.4 % of control | NC(=O)c1cccnc1 [Nicotinamide, nicotinamide, reference compound] | – | – | – | – | published as inhibitors of NADase
2 | – | 112.3 % of control | 93.4 % of control | 81.3 % of control | 59.4 % of control | 80.5 % of control | 65.4 % of control | – | 115.0 % of control | 91.9 % of control | 56.9 % of control | 26.9 % of control | 36.5 % of control | 48.8 % of control | NC(=O)c1ccc[n+]([C@@H]2O[C@H](COP(=O)([O-])O)[C@@H](O)[C@H]2O)c1 [β-NMN, β-nicotinamide mononucleotide, reference compound] | – | – | – | – | published as inhibitors of NADase

The remaining lines, values behind:

Row | Compound | Inhibition of intracellular membrane bound P10 ADP-ribosyl cyclase (in words) [1] | Enzyme Activity (% of control), Cyclase activity ([1]; inhibitor 10 μM) | Enzyme Activity (% of control), Cyclase activity ([1]; inhibitor 100 μM) | Enzyme Activity (% of control), NAD glycohydrolase activity ([2]; inhibitor 10 μM) | Enzyme Activity (% of control), NAD glycohydrolase activity ([2]; inhibitor 100 μM) | Enzyme Activity (% of control), Cyclase activity ([3]; inhibitor 10 μM) | Enzyme Activity (% of control), Cyclase activity ([3]; inhibitor 100 μM) | Inhibition of NADase activity in the P10 fraction (in words) [4] | Enzyme Activity (% of control), NAD glycohydrolase activity ([4]; inhibitor 10 μM) | Enzyme Activity (% of control), NAD glycohydrolase activity ([4]; inhibitor 100 μM) | Enzyme Activity (% of control), Cyclase activity ([1]; inhibitor 1000 μM) | Enzyme Activity (% of control), NAD glycohydrolase activity ([2]; inhibitor 1000 μM) | Enzyme Activity (% of control), Cyclase activity ([3]; inhibitor 1000 μM) | Enzyme Activity (% of control), NAD glycohydrolase activity ([4]; inhibitor 1000 μM) | Proliferation of Jurkat T cells (in words) (human Jurkat T cells) | Inhibition of NADase activity, cell surface (in words) [5] | Second, sustained phase of Ca2+ signaling (in words) [6] | Inhibition of ecto-ADP-ribosyl cyclase (in words) [7] | Published as inhibitor of NADase (NADase)
3 | NC(=O)c1ccc[n+]([C@@H]2O[C@H](COP(=O)([O-])OP(=O)(O)OC[C@H]3O[C@@H](n4ccc5c(=O)[nH]cnc54)[C@H](O)[C@@H]3O)[C@@H](O)[C@H]2O)c1 [7-deaza-NHD, 7-deaza-nicotinamide hypoxanthine dinucleotide] | inhibit | 97.9 % of control | 82.1 % of control | 94 % of control | 80.5 % of control | 94.0 % of control | 69.3 % of control | inhibit | 97.5 % of control | 83.3 % of control | – | – | – | – | – | – | – | – | –
4 | NC(=O)c1ccc[n+](C2OC(COP(=O)([O-])OP(=O)(O)OCC3OC(n4c(Br)nc5c(=O)[nH]cnc54)C(O)C3O)C(O)C2O)c1 (stereo not drawn) [8-Br-NHD, nicotinamide 8-bromohypoxanthine dinucleotide] | dose-dependently inhibited; also recorded: inhibit | 59.2 % of control | 14.3 % of control | 55.5 % of control | 3.3 % of control | 57.7 % of control | 13.0 % of control | inhibited with a similar pharmacology; also recorded: inhibit | 60.8 % of control | 15.6 % of control | – | – | – | – | dose-dependently inhibits | inhibited with a similar pharmacology | significantly reduced | dose-dependent inhibition | –
5 | NC(=O)c1ccc[n+](C2OC(COP(=O)(O)OP(=O)(O)OCC3OC(n4cnc5c(=O)[nH]cnc54)C(O)C3O)C(O)C2O)c1 (stereo not drawn) [NHD, nicotinamide hypoxanthine dinucleotide] | inhibit | 63.6 % of control | 11.26 % of control | 37.3 % of control | 13.5 % of control | 46.0 % of control | 10.6 % of control | inhibit | 59.0 % of control | 0 % of control | – | – | – | – | – | – | – | – | –
